Measurements published in patent publication US20050233991A1, “Methods and compositions for the identification, assessment, and therapy of small cell lung cancer” (priority 2002, published 2005).
One block for each compound: values may come before it.

How the values were obtained:
NCI-H69 cells [1] = assay: Cell viability assay (trypan blue dye exclusion); type: cell-based, human; details: 100 ng/ml; for increase in viable cell number: 10% FCS, 72 hours; for effect on cell survival: without serum
Protocol: Ten small cell lung cancer (SCLC) cell lines (NCI-H69, NCI-H82, NCI-H128, NCI-H146, NCI-H209, NCI-H249, NCI-H345, NCI-H446, NCI-H510, and NCI-H526) were purchased from the American Type Culture Collection (Rockville, Md.) and maintained in RPMI 1640 medium (Cellgro) supplemented with 10% (v/v) fetal calf serum (FCS). MO7e cells were maintained as described in Sattler, M. et al. (1997) J. Biol. Chem. 272:10248-53. All cell lines were incubated at 37° C. in a 5% CO2 humidified atmosphere and harvested during log phase growth. Cells were deprived of growth factors by incubation in RPMI 1640 medium containing 0.5% (w/v) bovine serum albumin (BSA) (Sigma, St. Louis, Mo.) for 18 hours. In some experiments, cells were treated with 5 μM STI571 (Gleevec™, Novartis Pharmaceuticals, Basel, Switzerland) or 25 μM LY294002 (Sigma).
Viable cells were counted by trypan blue dye exclusion test every 24 hours up to 72 hours. Data was plotted as the mean±SD from three independent experiments. Student's t test was used for the statistical analysis of viable cell number under individual conditions. Differences were considered statistically significant at p<0.05.

NCI-H446 cells = assay: Phase contrast microscopy of SDF-1α induced adhesion/morphology with LY294002; type: cell-based, human; details: SDF-1α 100 ng/ml, 24 hour time point
Protocol: (§1) Phase-contrast photomicrographs were taken at various time points (0, 1, 2, 4, 8, and 24 hours). For LY294002 studies, starved NCI-H446 cells (1×10^6) were resuspended in serum free media and placed onto a 35 mm tissue culture dish (Becton Dickinson Labware).
Phase-contrast microscopy pictures were taken at the 24 hour time point. Most of the untreated cells kept their rounded shape and formed clusters, and nearly half of them attached weakly to the bottom of the dish.

NCI-H69 cells [2] = assay: Phase contrast microscopy of morphological changes with SDF-1α, SCF and STI571; type: cell-based, human; details: for morphological change of NCI-H69 cells in response to ligand: 100 ng/ml, pictures after 8 hours
Protocol: as §1
It has not been shown previously that there is a functional interaction between CXCR4 and c-Kit in SCLC. […] Phase-contrast microscopy pictures were then taken after 8 hours. Morphological changes began to be apparent at 4 hours, and the changes plateaued between 8 and 24 hours. […] Inhibition of the active c-Kit receptor by STI571 may lead to the inhibition of other active receptors such as CXCR4.

[3] = tested on: tyrosine phosphorylation of cellular proteins in NCI-H69 cells; assay: Immunoblotting of tyrosine phosphorylation of cellular proteins (4G10); type: cell-based, human
Protocol: (§2) Cells were lysed in lysis buffer (20 mM Tris pH 8.0, 150 mM NaCl, 10% glycerol, 1% NP-40, 0.42% NaF) containing protease inhibitors (1 mM PMSF, 1 mM Na3VO4, 5 μg/ml aprotinin, 5 μg/ml leupeptin). Cell lysates were separated by 7.5% SDS-PAGE under reducing conditions and transferred to nitrocellulose membranes (Schleicher & Schuell, Dassel, Germany). Proteins were detected by immunoblotting using an enhanced chemiluminescence technique (NEN Life Science Products, Mass.). Rabbit polyclonal antibodies against c-Kit (C-19; Santa Cruz Biotechnology, Inc., Santa Cruz, Calif.), Akt, Akt (pSer 473), Akt (pThr 308), p70 S6 kinase, and p70 S6 kinase (pThr 389) (Cell Signaling Technology, Inc., Beverly, Mass.) and monoclonal antibodies against […]-actin (AC-15; Sigma, St. Louis, Mo.) and phosphotyrosine (4G10, UBI, Lake Placid, N.Y.) were used.
(§3) The activity of the PI3-K downstream targets Akt and p70 S6 kinase is regulated through critical serine/threonine (Ser/The) residues (Franke, T. F. et al. (1997) Cell 88:435-7; Pullen, N. and Thomas, G. (1997) FEBS Lett 410:78-82). […] Cell lysates were applied to a 7.5% SDS-PAGE gel and transferred to nitrocellulose membrane. The membrane was probed with monoclonal antibodies against phosphotyrosine (4G10) and β-actin and polyclonal antibodies against Akt (pSer 473) and p70 S6 kinase (S6K) (pThr 389). […] On the other hand, maximal tyrosine phosphorylation of proteins at 60-90 kDa and 110-145 kDa occurred within 2.5-7.5 minutes in response to SCF.

Akt and p70 S6 kinase = assay: Immunoblotting of Akt and p70 S6 kinase phosphorylation; type: cell-based, human; details: for time to phosphorylation of Akt (Ser 473) and p70 S6 kinase (Thr 389): 50 ng/ml, serum starved NCI-H69 cells
Protocol: as §2, §3
Lysates were processed as described above in Example 6, and the membrane was probed with the phospho-specific or regular antibodies against Akt and p70 S6 kinase, as well as with an anti-c-Kit antibody. […] The expression levels of Akt, p70 S6 kinase, and c-Kit were not affected by any of these treatments.

human c-Kit (human) = assay: cell-based or functional assay

effect of pre-treatment on SCF induced phosphorylation of Akt and p70 S6 kinase (Akt and p70 S6 kinase; STI571 5 μM or LY294002 25 μM overnight, then 50 ng/ml SCF 15 minutes, NCI-H69 cells): inhibited
Compound: Cc1ccc(NC(=O)c2ccc(CN3CCN(C)CC3)cc2)cc1Nc1nccc(-c2cccnc2)n1 [STI571]
inhibition of the morphological changes (NCI-H69 cells [2]; STI571 5 μM): only in the presence of SCF | neurite like projections induced by SDF-1α alone in the presence of STI571 (NCI-H69 cells [2]; STI571 5 μM, SDF-1α 100 ng/ml): still formed | neurite like structures in STI571 treated cells stimulated with both SDF-1α and SCF (NCI-H69 cells [2]; STI571 5 μM, SDF-1α 100 ng/ml and SCF 100 ng/ml): could not form any neurite like structures

time to phosphorylation of Akt (Ser 473) and p70 S6 kinase (Thr 389) (Akt and p70 S6 kinase): ≤ 2.5 min
Compound: SCF: Recombinant human stem cell factor, natural ligand of c-Kit
increase in viable cell number (NCI-H69 cells [1]): 16.5% | cell proliferation induced, as compared with untreated control (NCI-H69 cells [1]; media containing 10% FCS, 48 hours): 21.5% | effect on cell survival (NCI-H69 cells [1]): neither SCF nor SDF-1α showed any effect | morphological change of NCI-H69 cells in response to ligand (NCI-H69 cells [2]): Neurite like actin formations were observed | concentration giving optimal phosphorylation of cellular proteins (dose-response studies) ([3]; NCI-H69 cells): ≥ 10 ng/mL | time of maximal tyrosine phosphorylation of proteins at 60-90 kDa and 110-145 kDa ([3]; SCF 50 ng/ml, serum starved NCI-H69 cells): 2.5-7.5 minutes

The remaining lines, values behind:

Compound: SDF-1α: Recombinant human SDF-1α, natural ligand for CXCR4, member of the CXC chemokine family
increase in viable cell number (NCI-H69 cells [1]): 15.5% | effect on cell survival (NCI-H69 cells [1]): neither SCF nor SDF-1α showed any effect | adhesion and morphology of cells with SDF-1α (NCI-H446 cells): almost all cells tightly adhered to the bottom of the dish and neurite like projections were induced in many cells | morphological change of NCI-H69 cells in response to ligand (NCI-H69 cells [2]): more apparent as projections | time to tyrosine phosphorylated bands between 70-120 kDa ([3]; SDF-1α 50 ng/ml, serum starved NCI-H69 cells): ≤ 15 min | time to phosphorylation of Akt (Ser 473) and p70 S6 kinase (Thr 389) (Akt and p70 S6 kinase): ≤ 5 min

Compound: O=c1cc(N2CCOCC2)oc2c(-c3ccccc3)cccc12 [LY294002, reference compound]
cells floating with rounded shapes in spite of SDF-1α treatment (NCI-H446 cells; LY294002 25 μM): more than 90%

Compound: Recombinant human SCF (stem cell factor) (from UniProt P21583 26-189) (ligand)
cell proliferation of NCI-H69 cells (viable cell count, trypan blue), 10% FCS, 100 ng/ml SCF, 48 hours, increase compared with untreated control (human c-Kit (human)): 21.5% | concentration for optimal phosphorylation of cellular proteins in NCI-H69 cells (immunoblot, dose-response) (human c-Kit (human)): 10 ng/mL | time to phosphorylation of Akt (Ser 473) and p70 S6 kinase (Thr 389) in NCI-H69 cells, 50 ng/ml SCF (human c-Kit (human)): < 2.5 min
